Structures are written as SMILES. Values joined by “and” are separate entries in the source; they are usually repeats but may differ in a detail not shown here. Equal values may be shown once.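 Values below derive from 48-hour exposures of cells grown in 96-well plates, with endpoints linearly interpolated between the two concentrations bracketing the appropriate inhibition level. The concentration for 50% growth inhibition is given as GI50. TGI is the concentration that stops growth completely.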

What all share (assay): NCI-60 cell line screen, 48 h
Assay [1] deals with HCT-15 colon.
Assay [2] relates to UACC-257 melanoma.
Assay [3] concerns BT-549 breast.
Assay [4] deals with M14 melanoma.
Assay [5] has as its system SF-295 CNS.
Assay [6] deals with OVCAR-4 ovarian.
Assay [7] deals with SR leukemia.
In assay [8] the test system is NCI-H522 lung.
Assay [9] deals with NCI-H460 lung.
The test system of assay [10] is TK-10 renal.

With `N#CC1(c2ccc(NC(=O)c3cccnc3NCc3ccncc3)cc2)CCCC1`, the GI50 was 8.12 µM in assay [1]; 17.7 µM in [2]; 10.2 µM in assay [3]; 16.1 µM in assay [4]; 9.38 µM in assay [5]; 13.2 µM in assay [6]. The GI50 is 13 µM in assay [7], 7.6 µM in assay [8], 14.1 µM in [9] and 23.5 µM in assay [10]. Besides, the TGI in assay [1] is 39.3 µM; in [2] it was over 68.9 µM; in assay [3] it was 61 µM; in [4], over 67.1 µM; in assay [5], 27.3 µM; in [6], 98.5 µM. In addition, the TGI is 39.5 µM in assay [7], 35.1 µM in assay [8], 54.3 µM in assay [9] and over 74.3 µM in assay [10].
With `Cc1nn(-c2ccc(Cl)cc2)c2ncnc(N/N=C/c3ccccc3O)c12`, the GI50 is 0.407 µM and 0.331 µM in [1]; 2.68 µM and 1.31 µM in assay [2]; 1.31 µM and 0.57 µM in assay [3]; 0.523 µM and 0.34 µM in assay [4]; 0.841 µM and 1.12 µM in assay [5]; 0.436 µM and 0.237 µM in assay [6]. The GI50 was 0.445 µM and 0.206 µM in assay [7]; 0.874 µM and 0.321 µM in assay [8]; 0.375 µM and 0.347 µM in [9]; 2.33 µM and 1.86 µM in assay [10]. Also, the TGI in [1] is over 100 µM; in [2], 16.1 µM and 39.3 µM; in [3], 57.9 µM and > 100 µM; in assay [4] it was 2.43 µM and 2.11 µM; in [5], 9.93 µM and 24.4 µM; in [6] it was 50.9 µM and 14.2 µM. For the same compound, the TGI is 43.5 µM in assay [7]; over 69.6 µM in assay [8]; 3.14 µM and 5.67 µM in [9]; 63.4 µM and > 100 µM in assay [10].
For `O=C(/C=C/C12c3ccccc3C(c3ccccc31)C1C(=O)NC(=O)C12)c1ccccn1` (stereo unspecified), the GI50 in [1] is 1.17 µM; in [2], 1.88 µM; in assay [3], 1.82 µM; in assay [4], 1.83 µM; in [5], 1.61 µM; in [6], 2.69 µM. Besides, the GI50 in assay [7] is 0.782 µM; in [8] it was 1.52 µM; in assay [9], 1.08 µM; in assay [10], 2.35 µM. Further, the TGI in [1] worked out at 3.35 µM; in [2], 3.56 µM; in assay [3] it was 3.69 µM; in assay [4], 4.12 µM; in [5], 3.49 µM; in assay [6] it was 11.7 µM. Besides, the TGI turned out to be 7.31 µM in assay [7], 3.37 µM in assay [8], 4.11 µM in [9] and 5.31 µM in assay [10].
As for `O=C1C=C[C@H](O)[C@@]2(CO)O[C@@H]12`, the GI50 is 14.3 µM in assay [1]; 9.25 µM in assay [2]; 12.4 µM in [3]; 15.2 µM in [4]; 8.26 µM in [5]; 13 µM in assay [6]. Further, the GI50 is 4.64 µM in assay [7], 1.81 µM in assay [8], 26.8 µM in [9] and 16.1 µM in assay [10]. In addition, the TGI stood at 30.5 µM in assay [1]; 23.6 µM in assay [2]; 25.5 µM in [3]; 29 µM in [4]; 38.5 µM in assay [5]; 29.4 µM in assay [6]. Further, the TGI was over 100 µM in [7], 3.79 µM in assay [8], over 66.1 µM in [9] and 29.8 µM in assay [10].
Regarding `c1ccc(-c2[nH]ncc2-c2ccnc(-c3ccc(OCCn4ccnc4)cc3)c2)nc1`, the GI50 in [1] is 22 µM; in assay [2], over 25 µM; in assay [3], 22.5 µM; in [4], over 25 µM; in assay [5], over 25 µM; in [6] it was 16.1 µM. The GI50 in assay [7], in assay [8], in assay [9] and in [10] was over 25 µM in each case. Further, the TGI in assay [1], in assay [2], in assay [3], in [4], in [5] and in assay [6] was over 25 µM each time. For the same compound, the TGI in [7], in assay [8], in [9] and in assay [10] was over 25 µM throughout.
In the case of `Cc1ccc(O)cc1Nc1ccnc2ccc(S(C)(=O)=O)cc12`, the GI50 in assay [1] is 11.4 µM; in assay [2], 0.957 µM; in [3] it was 5.06 µM; in assay [4], 0.939 µM; in [5], 3.34 µM; in assay [6] it was over 25 µM. In addition, the GI50 in assay [7] was over 25 µM; in assay [8] it was 5.08 µM; in assay [9], 10.5 µM; in [10], 0.484 µM. The TGI in assay [1] is over 25 µM; in [2], over 25 µM; in assay [3] it was 17.8 µM; in assay [4], over 21.8 µM; in [5], over 25 µM; in [6], over 25 µM. The TGI in [7] is over 25 µM; in assay [8], over 22.1 µM; in assay [9], over 25 µM; in assay [10], 2.23 µM.
Consider `CC1=C(C(=O)Nc2ccccc2)C(c2ccc(N(C)C)cc2)C(C(=O)Nc2ccccc2)=C(C)N1`, for which the TGI in [1] was 15.3 µM; in assay [2], over 100 µM; in assay [3] it was over 88.3 µM; in [4], over 56 µM; in assay [5], 50.2 µM; in assay [6] it was over 100 µM. In addition, the TGI in [7] was over 92.8 µM; in [8], 81.2 µM; in [9], over 100 µM; in assay [10], over 100 µM.
Regarding `Cc1cc(O)c2c(c1)C(=O)C=CC2=O`, the GI50 in assay [1] was 7.78 µM and 3.53 µM; in assay [2], 9.95 µM; in assay [3], 15.5 µM and 6.9 µM; in assay [6] it was 14.5 µM and 6.75 µM; in assay [7], 1.14 µM and 0.33 µM; in [8], 3.8 µM and 1.46 µM. In addition, in assay [10], the GI50 was 5.92 µM and 12.7 µM. Besides, the TGI in assay [1] was 24.9 µM and 9.83 µM; in assay [2], 11.3 µM and 27.8 µM; in assay [3], 30.3 µM and 21 µM; in [4] it was 25.7 µM and 21.7 µM; in assay [5], 32.7 µM and 39 µM; in assay [6], 28.8 µM and 19.5 µM. Further, the TGI was 8.05 µM and 3.06 µM in [8]; 45.5 µM and 31.1 µM in assay [9]; 15.6 µM and 26.9 µM in assay [10].
As for `COc1cc2c(N3CCN(C(=O)Nc4ccc(OC(C)C)cc4)CC3)ncnc2cc1OCCCN1CCCCC1`, the GI50 in assay [1] is 16.7 µM; in assay [2], 10.3 µM; in assay [3], 13.4 µM; in [4], 16.2 µM; in assay [5], 12.5 µM; in assay [6], 14.4 µM. The GI50 is 9.55 µM in assay [7], 16.6 µM in assay [8], 18.4 µM in assay [9] and 38.9 µM in [10]. Further, the TGI in assay [1] stood at 36.1 µM; in assay [2], 23.6 µM; in [3] it was 29.3 µM; in assay [4] it was 32.6 µM; in assay [5] it was 27.9 µM; in assay [6], 53.9 µM. The TGI was 46.2 µM in assay [7], 36.1 µM in [8], over 61.3 µM in [9] and over 100 µM in assay [10].
